Assay results: paper PMC9001978, “Determining the Effects of Differential Expression of GRKs and β-arrestins on CLR-RAMP Agonist Bias” (Frontiers in Physiology, 2022)
“Also recorded” adds a separate entry of the source.

Assays:
[1] = system: Glucagon-like peptide-1 receptor (GLP-1R); assay: Effect on GLP-1R internalisation; type: cell-based; settings: 100 μM, 30 min preincubation
CLR-RAMP complexes [2] = assay: Effect of barbadin on cAMP accumulation at CLR-RAMP complexes; type: cell-based; settings: all agonists, three CLR-RAMP complexes
CLR-RAMP complexes [3] = assay: Effect of barbadin on CLR-RAMP internalisation; type: cell-based; settings: any CLR-RAMP complex, at concentration that blocked GLP-1R internalisation
CLR-RAMP complexes [4] = assay: Effect of barbadin on cAMP accumulation in β-arrestin KO HEK293 cells; type: cell-based; settings: 100 μM barbadin
5-HT2CR = settings: ref He et al., 2021; cited from earlier work
[5] = system: V2-vasopressin receptor (V2R); settings: ref Beautrait et al., 2017; cited from earlier work
Source text: (§1) The data we have obtained related to agonist-dependent internalisation of CLR in the presence of barbadin (Figure 3C) appear contradictory when compared to our results obtained with the HEK293∆β-arr1/2 cell lines (Figure 4A).

[6] = system: angiotensin-II type-1 receptor (AT1R); settings: ref Beautrait et al., 2017; cited from earlier work
Source text: as §1

[7] = system: protease-activated receptor 2 (PAR2); settings: ref Jung et al., 2021; cited from earlier work
Source text: as §1

[8] = system: β2-adrenergic receptor (β2AR); settings: ref Beautrait et al., 2017; cited from earlier work
Source text: as §1

[9] = system: free fatty acid receptor 2 (FFAR2); settings: ref Wang et al., 2020; cited from earlier work
β-arrestin-AP2 complex = settings: ref Beautrait et al., 2017; cited from earlier work
Source text: The canonical role of β-arrestins is the desensitisation of G protein signalling; steric hindrance to disrupt G protein-receptor association and acting as scaffolds for proteins which decrease the G protein activity and output e.g. phosphodiesterases (PDEs) ([Perry et al., 2002]). Additionally, β-arrestins mediate agonist dependent internalisation at many GPCRs, through the recruitment of β2-adaptin (AP2) and subsequently clathrin, to mediate endocytosis. […] Barbadin is an inhibitor of the β-arresti ...

CLR-RAMP3 [10] = biological target: T1, CLR-RAMP3 (Homo sapiens, UniProt O60896+Q16602); parameters: method as in Clark et al., 2021; settings: AM receptor 2 (AM2R), ref Clark et al., 2021; cited from earlier work
T1 sequence (Q16602 23-461): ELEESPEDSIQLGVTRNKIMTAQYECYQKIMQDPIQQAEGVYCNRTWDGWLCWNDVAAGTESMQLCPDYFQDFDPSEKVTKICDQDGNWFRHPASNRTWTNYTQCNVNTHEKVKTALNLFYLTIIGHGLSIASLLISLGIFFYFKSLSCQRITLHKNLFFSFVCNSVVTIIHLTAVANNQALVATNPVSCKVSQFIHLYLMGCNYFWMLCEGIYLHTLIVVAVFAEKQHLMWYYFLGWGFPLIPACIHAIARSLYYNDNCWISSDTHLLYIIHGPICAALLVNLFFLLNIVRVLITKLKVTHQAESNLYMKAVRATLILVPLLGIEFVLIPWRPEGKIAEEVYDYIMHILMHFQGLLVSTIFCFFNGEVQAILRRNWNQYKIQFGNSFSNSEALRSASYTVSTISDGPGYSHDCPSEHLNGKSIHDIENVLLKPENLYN
T1 sequence (O60896 24-148): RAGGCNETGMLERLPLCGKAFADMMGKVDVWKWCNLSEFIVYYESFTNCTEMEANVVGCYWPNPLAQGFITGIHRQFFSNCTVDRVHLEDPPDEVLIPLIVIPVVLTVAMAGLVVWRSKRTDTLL

CLR-RAMP2 [11] = biological target: T2, CLR-RAMP2 (Homo sapiens, UniProt O60895+Q16602); assay: cAMP accumulation at CLR-RAMP2
T2 sequence (Q16602 23-461): as the sequence (Q16602 23-461) above
T2 sequence (O60895 43-175): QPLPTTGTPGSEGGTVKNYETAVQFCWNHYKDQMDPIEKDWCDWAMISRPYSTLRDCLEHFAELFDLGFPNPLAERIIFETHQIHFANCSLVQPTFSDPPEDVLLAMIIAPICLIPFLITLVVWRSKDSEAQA

CLR-RAMP1 [12] = biological target: T3, CLR-RAMP1 (Homo sapiens, UniProt O60894+Q16602); assay: β-arrestin1 recruitment to CLR-RAMP1 (BRET); settings: HEK293T, n = 3
T3 sequence (Q16602 23-461): as the sequence (Q16602 23-461) above
T3 sequence (O60894 27-148): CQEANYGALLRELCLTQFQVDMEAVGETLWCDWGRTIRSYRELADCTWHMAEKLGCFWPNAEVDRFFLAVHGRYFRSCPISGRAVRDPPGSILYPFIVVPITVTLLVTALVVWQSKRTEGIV

CLR-RAMP2 [13] = biological target: T2, CLR-RAMP2; assay: β-arrestin1 recruitment to CLR-RAMP2 (BRET); settings: HEK293T, n = 3
CLR-RAMP1 [14] = biological target: T3, CLR-RAMP1; assay: β-arrestin2 recruitment to CLR-RAMP1 (BRET); settings: HEK293T, n = 3
CLR-RAMP2 [15] = biological target: T2, CLR-RAMP2; assay: β-arrestin2 recruitment to CLR-RAMP2 (BRET); settings: HEK293T, n = 3
CLR-RAMP1 [16] = biological target: T3, CLR-RAMP1; assay: Internalisation of CLR-RAMP1 (BRET CLR-Nluc / RIT-Venus); settings: HEK293T, CLR-Nluc + FLAG-RAMP1, RIT-Venus BRET; mean ± SEM, n = 3-4
CLR-RAMP2 [17] = biological target: T2, CLR-RAMP2; assay: Internalisation of CLR-RAMP2 (BRET CLR-Nluc / RIT-Venus); settings: HEK293T, CLR-Nluc + FLAG-RAMP2, RIT-Venus BRET; mean ± SEM, n = 3-4
CLR-RAMP3 [18] = biological target: T1, CLR-RAMP3; assay: Internalisation of CLR-RAMP3 (BRET CLR-Nluc / RIT-Venus); settings: HEK293T, CLR-Nluc + FLAG-RAMP3, RIT-Venus BRET; mean ± SEM, n = 4-5

Nn1cnc2scc(-c3ccc(Cc4ccccc4)cc3)c2c1=O [Barbadin]
Effect on GLP-1R internalisation [1]: successfully block | Effect on GLP-1R internalisation ([1]; listed as barbadin): inhibit GLP-1R internalisation | Effect of barbadin on cAMP accumulation (CLR-RAMP complexes [2]): reduce cAMP accumulation | Effect of barbadin on cAMP accumulation (CLR-RAMP complexes [2]; listed as barbadin): significantly reduce cAMP accumulation; also recorded: significantly attenuated cAMP signalling | Effect of barbadin on agonist-mediated CLR internalisation (CLR-RAMP complexes [3]): did not block agonist-mediated CLR internalisation; also recorded: no effect on receptor internalisation | Effect of barbadin on cAMP accumulation (CLR-RAMP complexes [4]): agonist dependent reduction in cAMP accumulation | Block of receptor internalisation (5-HT2CR): successfully block | Block of receptor internalisation [5]: successfully block | Block of receptor internalisation [6]: successfully block | Block of receptor internalisation [7]: successfully block | Block of receptor internalisation [8]: successfully block | Block of receptor internalisation [9]: successfully block | Effect on β-arrestin recruitment (β-arrestin-AP2 complex): without inhibiting β-arrestin recruitment | Inhibition of β-arrestin-AP2 interaction (β-arrestin-AP2 complex): inhibitor of the β-arrestin-AP2 interacting domain

CSCC[C@H](NC(=O)[C@H](CC(C)C)NC(=O)[C@H](CCC(N)=O)NC(=O)[C@H](Cc1c[nH]c2ccccc12)NC(=O)[C@H](CC(C)C)NC(=O)[C@H](CCCNC(=N)N)NC(=O)[C@H](Cc1c[nH]cn1)NC(=O)[C@H](CO)NC(=O)[C@H](CC(C)C)NC(=O)[C@H](CC(N)=O)NC(=O)[C@H](CCC(N)=O)NC(=O)[C@@H](NC(=O)[C@H](CCC(N)=O)NC(=O)[C@@H]1CSSC[C@H](NC(=O)CNC(=O)[C@@H](NC(=O)[C@H](CCCNC(=N)N)NC(=O)[C@H](CC(C)C)NC(=O)[C@H](CC(C)C)NC(=O)[C@H](CCC(N)=O)NC(=O)[C@H](C)NC(=O)[C@H](CCC(N)=O)NC(=O)[C@@H](N)[C@@H](C)O)C(C)C)C(=O)N[C@@H](C(C)C)C(=O)N[C@@H](CC(C)C)C(=O)NCC(=O)N[C@@H]([C@@H](C)O)C(=O)N1)C(C)C)C(=O)NCC(=O)N1CCC[C@H]1C(=O)N[C@@H](C)C(=O)NCC(=O)N[C@@H](CCCNC(=N)N)C(=O)N[C@@H](CCC(N)=O)C(=O)N[C@@H](CC(=O)O)C(=O)N[C@@H](CO)C(=O)N[C@@H](C)C(=O)N1CCC[C@H]1C(=O)N[C@H](C(=O)N[C@@H](CC(=O)O)C(=O)N1CCC[C@H]1C(=O)N[C@@H](CO)C(=O)N[C@@H](CO)C(=O)N1CCC[C@H]1C(=O)N[C@@H](Cc1c[nH]cn1)C(=O)N[C@@H](CO)C(=O)N[C@@H](Cc1ccc(O)cc1)C(N)=O)C(C)C [AM2, adrenomedullin 2]
Rank order of potency (CLR-RAMP3 [10]): equipotent agonists | Effect of barbadin pretreatment on cAMP accumulation (CLR-RAMP2 [11]; AM2 at CLR-RAMP2): far smaller | Change in cAMP potency on β-arrestin2 overexpression (CLR-RAMP2 [11]; CLR-RAMP2, HEK293T, p = 0.02): significant decrease in potency | Emax, β-arrestin1 recruitment (CLR-RAMP1 [12]; CLR-Nluc + FLAG-RAMP1 + β-arrestin1-YFP, BRET, mean ± SEM): ~63 ± 27 BRET units (x10^-3) | Emax, β-arrestin1 recruitment (CLR-RAMP1 [12]; GRK2 overexpressed): ~46 ± 5 BRET units (x10^-3) | Emax, β-arrestin1 recruitment (CLR-RAMP1 [12]; GRK3 overexpressed): ~32 ± 2 BRET units (x10^-3) | Emax, β-arrestin1 recruitment (CLR-RAMP1 [12]; GRK4 overexpressed): ~28 ± 7 BRET units (x10^-3) | Emax, β-arrestin1 recruitment (CLR-RAMP1 [12]; GRK6 overexpressed): ~10 ± 6 BRET units (x10^-3) | Emax, β-arrestin1 recruitment (CLR-RAMP1 [12]; GRK series: Vector): ~63 ± 26 BRET units (x10^-3) | Emax, β-arrestin1 recruitment (CLR-RAMP2 [13]; CLR-Nluc + FLAG-RAMP2 + β-arrestin1-YFP, BRET, mean ± SEM): 3 ± 1 BRET units (x10^-3) | Emax, β-arrestin1 recruitment (CLR-RAMP2 [13]; GRK2 overexpressed): 7 ± 1 BRET units (x10^-3) | Emax, β-arrestin1 recruitment (CLR-RAMP2 [13]; GRK3 overexpressed): 11 ± 1 BRET units (x10^-3) | Emax, β-arrestin1 recruitment (CLR-RAMP2 [13]; GRK4 overexpressed): 4 ± 1 BRET units (x10^-3) | Emax, β-arrestin1 recruitment (CLR-RAMP2 [13]; GRK series: Vector): 3 ± 1 BRET units (x10^-3) | Emax, β-arrestin2 recruitment (CLR-RAMP1 [14]; CLR-Nluc + FLAG-RAMP1 + β-arrestin2-YFP, BRET, mean ± SEM): ~98 ± 21 BRET units (x10^-3) | Emax, β-arrestin2 recruitment (CLR-RAMP1 [14]; GRK2 overexpressed): ~54 ± 47 BRET units (x10^-3) | Emax, β-arrestin2 recruitment (CLR-RAMP1 [14]; GRK3 overexpressed): ~49 ± 8 BRET units (x10^-3) | Emax, β-arrestin2 recruitment (CLR-RAMP1 [14]; GRK4 overexpressed): ~45 ± 4 BRET units (x10^-3) | Emax, β-arrestin2 recruitment (CLR-RAMP1 [14]; GRK series: Vector): ~98 ± 21 BRET units (x10^-3) | Emax, β-arrestin2 recruitment (CLR-RAMP2 [15]; CLR-Nluc + FLAG-RAMP2 + β-arrestin2-YFP, BRET, mean ± SEM): 9 ± 1 BRET units (x10^-3) | Emax, β-arrestin2 recruitment (CLR-RAMP2 [15]; GRK4 overexpressed): 10 ± 2 BRET units (x10^-3) | Emax, β-arrestin2 recruitment (CLR-RAMP2 [15]; GRK series: Vector): 9 ± 1 BRET units (x10^-3) | Emax, internalisation (CLR-RAMP1 [16]): ~-63 ± 41 BRET units (x10^-3) | Emax, internalisation (CLR-RAMP2 [17]): ~-20 ± 18 BRET units (x10^-3) | Emax, internalisation (CLR-RAMP3 [18]): ~-8 ± 3 BRET units (x10^-3)
